According to PubChem BioAssay (NCI):
Values joined by “and” are separate entries in the source; they are usually repeats but may differ in a detail not shown here. Equal entries are not always repeated.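 Test compounds were applied to cells in 96-well plates for 48 hours at 5 doses. The concentration for 50% growth inhibition is given as GI50. TGI marks complete inhibition of growth.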 Where a SMILES comes first, the peptide text is derived from it. [ ]: non-standard residue; d: D form. ξ: configuration not given here. Pentanoyl(2-O,4-OH,5-Cl) = O=C(O)C(O)CC(O)CCl; Ile(3ξ) = CCC(C)[C@H](N)C(=O)O; NMeV = CN[C@H](C(=O)O)C(C)C; NMeA = CN[C@@H](C)C(=O)O; βAla = NCCC(=O)O

Columns and labels:
Assay in all cases: inhibition of tumour cell growth, NCI panel, 48 h
[1] = test system: BT-549 breast
[2] = test system: DU-145 prostate
[3] = test system: HOP-92 NSCLC
[4] = test system: HS 578T breast
[5] = test system: MDA-MB-435
[6] = test system: OVCAR-4 ovarian
[7] = test system: PC-3 prostate
[8] = test system: RXF 393 renal
[9] = test system: SNB-75 CNS
[10] = test system: UACC-62 melanoma

Row | Compound | TGI [1] | TGI [2] | TGI [3] | TGI [4] | TGI [5] | TGI [6] | TGI [7] | TGI [8] | TGI [9] | TGI [10] | GI50 [1] | GI50 [2] | GI50 [3] | GI50 [4] | GI50 [5] | GI50 [6] | GI50 [7] | GI50 [8] | GI50 [9] | GI50 [10]
1 | C=C1C(=O)O[C@@H]2C[C@@]3(C)CCC[C@H](C)C3=C[C@H]12 (tested in a mixture with another compound) | 3.31 µM | 8.67 µM | 3.48 µM | 17.3 µM | 3.72 µM | 6.45 µM | 10 µM | 4.07 µM | 5.6 µM | 6.94 µM | – | – | – | – | – | – | – | – | – | –
2 | CC(C)(C)CNCCO | > 100 µM | > 100 µM | > 100 µM | > 100 µM | > 100 µM | > 100 µM | > 100 µM | > 100 µM | > 100 µM | > 100 µM | – | – | – | – | – | – | – | – | – | –
3 | Cc1ccc(/C=C/C(=O)c2ccc(F)cc2)s1 | 8.49 µM | 11.2 µM | 3.4 µM | 9.7 µM | 3.7 µM | 29.8 µM | 7.11 µM | 4.04 µM | 26.5 µM | 21.3 µM | 3.02 µM | 3.41 µM | 1.6 µM | 3.35 µM | 1.77 µM | 11.7 µM | 2.64 µM | 1.82 µM | 13.4 µM | 6.86 µM
4 | C=CC(=O)N1CCN([C@@H](CC2CC2)c2ccc([C@H](C)Nc3ncc4c(n3)N(CC)C(=O)OC4)cc2)CC1 | 16.6 µM | 25.4 µM | 8.06 µM | 55.6 µM | 23.6 µM | 28.4 µM | 31.4 µM | 20.9 µM | 16.7 µM | 26.1 µM | 4.7 µM | 12.7 µM | 1.47 µM | 9.19 µM | 11.1 µM | 12.3 µM | 12 µM | 4.62 µM | 2.06 µM | 12.1 µM
5 | COc1cccc(C2CC(C)(O)Oc3cc4c(cc32)OCO4)c1 (stereo not drawn) | > 100 µM | > 100 µM | 93.3 µM | 49.6 µM | 15.2 µM | > 100 µM | > 100 µM | > 100 µM | 61.7 µM | > 100 µM | – | – | – | – | – | – | – | – | – | –
6 | COc1ccc2c(c1[N+](=O)[O-])CC[C@@H]1[C@@H]2CC[C@]2(C)C(=O)CC[C@@H]12 | > 1000 µM | > 1000 µM | – | – | > 1000 µM | – | – | > 927 µM | > 25 µM and 345 µM | – | 470 µM | > 939 µM | 289 µM | 119 µM | > 1000 µM | 228 µM | > 684 µM | 432 µM | 142 µM | 387 µM
7 | CCC(C)[C@@H]1NC(=O)[C@@H]2CCCN2C(=O)C(CC(O)CCl)OC(=O)CCNC(=O)[C@H](C)N(C)C(=O)[C@H](C(C)C)N(C)C1=O (stereo partly drawn) (cyclo([Ile(3ξ)][NMeV][NMeA][βAla][Pentanoyl(2-O,4-OH,5-Cl)]P)) | > 100 µM | > 100 µM | 8.13 µM | > 100 µM | > 100 µM | > 100 µM | > 100 µM | > 100 µM | > 100 µM | 7.71 µM | – | – | – | – | – | – | – | – | – | –
8 | Clc1cccc(-c2cc(-c3ccc4c(c3)OCCO4)[nH]n2)c1 | 47 µM | 38.9 µM | 42.8 µM | 63.3 µM | 26.1 µM | 49.5 µM | 45.8 µM | 46.1 µM | 34.8 µM | 44.8 µM | 6.32 µM | 8.74 µM | 7.74 µM | 6.67 µM | 0.578 µM | 13.8 µM | 4.87 µM | 7.34 µM | 2.24 µM | 2 µM
9 | CN(C)CCN1C(=O)c2cccc3cc(N)cc(c23)C1=O | 28.3 µM and 13.1 µM | 29.8 µM and 12.9 µM | 15.4 µM and 13.1 µM | 50.9 µM and 21.2 µM | 15.7 µM and 9.98 µM | 33.7 µM and 18.3 µM | 42.8 µM and 8.73 µM | 18.1 µM and 10.6 µM | 17 µM and 16.7 µM | 11.7 µM and 8.02 µM | 11.2 µM | 1.59 µM | 2.28 µM | 10.4 µM | 3.86 µM | – | 4.07 µM | – | 3.81 µM | 2.89 µM
10 | CN1CCN(c2cc(F)c(NC3=C(Cl)C(=O)c4ncccc4C3=O)c(F)c2)CC1 | 3.06 µM | 2.94 µM | 3.22 µM | 5.67 µM | 3.2 µM | 2.65 µM | 3.74 µM | 3.1 µM | 5.61 µM | 3.17 µM | 1.63 µM | 1.45 µM | 1.69 µM | 2.02 µM | 1.66 µM | 1.35 µM | 1.6 µM | 1.64 µM | 1.37 µM | 1.67 µM
11 | Cc1ccc(NC(=O)c2ccoc2)cc1-c1ccc(C(=O)NCC2CC2)cc1 | > 25 µM | > 25 µM | > 25 µM | > 25 µM | > 25 µM | > 25 µM | > 25 µM | > 25 µM | > 25 µM | > 25 µM | > 19.7 µM | > 25 µM | 8.76 µM | > 19.3 µM | > 25 µM | > 18.8 µM | > 17 µM | > 25 µM | > 25 µM | 13.9 µM
12 | C=CCn1c(SCC(=O)Nc2ccc(C(=O)/C=C/c3cc(OC)c(OC)c(OC)c3)cc2)nnc1-c1cc(OC)c(OC)c(OC)c1 | 6.25 µM | > 100 µM | 56.6 µM | > 100 µM | 10.7 µM | 38.6 µM | 22.6 µM | 4.65 µM | 27.6 µM | 17.5 µM | 2.14 µM | 6.09 µM | 12.5 µM | 4.66 µM | 2.72 µM | 5.67 µM | 4.29 µM | 2.16 µM | 2.71 µM | 3.31 µM
13 | CN1CCC2(CC1)C(=O)Nc1cc(NC(=O)c3ccc4c(c3)C[C@@H]3C(C)(C)[C@H](O)[C@H](F)C[C@@]3(C)O4)ccc12 | 20.1 µM | 57.6 µM | 31.1 µM | 2.24 µM | 13 µM | > 100 µM | > 100 µM | 10.6 µM | 4.8 µM | 5.13 µM | 0.0691 µM | 10.6 µM | 1.97 µM | 0.0232 µM | 1.31 µM | 25.9 µM | 0.117 µM | 0.0497 µM | 0.0373 µM | 0.405 µM
14 | CC(C)OC(=O)Nc1c([N+](=O)[O-])cc(C(F)(F)F)cc1[N+](=O)[O-] | > 100 µM | > 100 µM | > 91.8 µM | > 100 µM | > 100 µM | > 100 µM | > 100 µM | 62.3 µM | 40 µM | > 100 µM | – | – | – | – | – | – | – | – | – | –
